In patent US20220226282A1 (priority 2021, published 2022):
Values joined by “and” are separate entries in the source; they are usually repeats but may differ in a detail not shown here. Identical values can stand only once. Like-named read-outs stand apart in the source and are kept apart here.

Experiments:
[1] = molecular target: T1, BoNT/A LC (Clostridium botulinum, UniProt P0DPI0); test: biochemical; design: species or system C. botulinum; conditions: read-out: % inhibition of the LCA endopeptidase activity
[2] = molecular target: T1, BoNT/A LC; test: biochemical; assay type: biochemical, C. botulinum
[3] = molecular target: T1, BoNT/A LC; test: biochemical; assay type: binding, C. botulinum
[4] = system: BoNT
[5] = molecular target: T1, BoNT/A LC; test: biochemical; assay type: binding, C. botulinum; remark: listed apart in the source

T1 sequence (P0DPI0 2-448 limits assumed): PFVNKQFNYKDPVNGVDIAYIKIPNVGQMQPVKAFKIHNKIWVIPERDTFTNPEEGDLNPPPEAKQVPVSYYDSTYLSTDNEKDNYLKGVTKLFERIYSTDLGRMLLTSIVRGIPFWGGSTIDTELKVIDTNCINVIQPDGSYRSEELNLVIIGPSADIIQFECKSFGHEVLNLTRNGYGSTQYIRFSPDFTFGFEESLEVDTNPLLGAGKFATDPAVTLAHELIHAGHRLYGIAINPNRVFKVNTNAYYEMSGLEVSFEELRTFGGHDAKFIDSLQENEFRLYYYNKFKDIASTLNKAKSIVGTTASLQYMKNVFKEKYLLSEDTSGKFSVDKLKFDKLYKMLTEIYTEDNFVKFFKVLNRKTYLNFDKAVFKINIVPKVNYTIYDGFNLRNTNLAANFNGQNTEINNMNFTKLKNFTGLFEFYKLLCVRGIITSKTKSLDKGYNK

Question: O=c1ccc2cc3c(-c4ccc([N+](=O)[O-])cc4)coc3cc2o1 [Compound 1, 3-(4-nitrophenyl)-7H-furo[3,2-g]chromen-7-one] was tested. Which inhibition at 81 µM [1] did it give?
Answer: Its inhibition at 81 µM is about 100%.

Question: What about the Vmax [2] of the same compound?
Answer: Its Vmax is 2.13 ± 0.5 RFU/s and 2.09 ± 0.2 RFU/s and 1.56 ± 1.1 RFU/s.

Question: What about the type of inhibition [2] of the same compound?
Answer: Its type of inhibition is “mixed (non-competitive) type of inhibition”.

Question: And the Ki ([2]; Ki)?
Answer: Its Ki is 5.8 ± 0.7 µM.

Question: What about the Ki ([2]; Ki′) of the same compound?
Answer: Its Ki is 11.5 ± 2.9 µM.

Question: And the “Ka (association constant)” value [3]?
Answer: Its value is 760900 M⁻¹.

Question: And the Kd [3]?
Answer: Its Kd is 1.31 µM.

Question: What about the “N (number of binding sites, binding stoichiometry)” value [3] of the same compound?
Answer: Its value is 2.8 and 2.760.

Question: What about the “ΔH (change in enthalpy)” value [3] of the same compound?
Answer: The value was -2.39 kcal/mol.

Question: And the “ΔS (change in entropy)” value [3]?
Answer: Its value is 79.05 J/mol · K.

Question: What about the “antidote activity against paralytic actions of BoNT” value [4] of the same compound?
Answer: Its value is “efficient antidote with the ability to mitigate the paralytic actions of BoNT”.

Question: What about the “corrected intensity of Trp fluorescence signal at λmax of BoNT/A LC (signal reduced to)” value [5] of the same compound?
Answer: Its value is 88% and 84% and 73% and 59%.

Question: What about the “n (number of binding sites)” value [5] of the same compound?
Answer: Its value is 0.90.

Question: And the ΔH [5]?
Answer: Its ΔH is -16.9 kcal/mol.

Question: What about the ΔS [5] of the same compound?
Answer: The ΔS was −0.15 kJ · mol^−1 K^−1.

Question: And the Kd ([5]; Ka (binding constant))?
Answer: Its Kd is 38 µM and 115 µM.
